Values joined by “and” are separate entries in the source; they are usually repeats but may differ in a detail not shown here. Equal entries are not always repeated.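 All cell lines were grown in 96-well plates and treated with compound for 48 hours. At the GI50, growth is halved. TGI is the concentration that stops growth completely.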
What was measured:
Assay in all cases: NCI-60 cell line screen, 48 h
IGROV1 ovarian = system: IGROV1 ovarian
NCI-H522 lung = system: NCI-H522 lung
OVCAR-3 ovarian = system: OVCAR-3 ovarian
OVCAR-5 ovarian = system: OVCAR-5 ovarian
SF-268 CNS = system: SF-268 CNS
SF-539 CNS = system: SF-539 CNS
SK-MEL-28 melanoma = system: SK-MEL-28 melanoma
SW-620 colon = system: SW-620 colon
UACC-62 melanoma = system: UACC-62 melanoma
MDA-N = system: MDA-N
NCI/ADR-RES ovarian = system: NCI/ADR-RES ovarian
PC-3 prostate = system: PC-3 prostate
T-47D breast = system: T-47D breast
SF-295 CNS = system: SF-295 CNS

Structure (SMILES) | TGI (IGROV1 ovarian) [µM] | TGI (NCI-H522 lung) [µM] | TGI (OVCAR-3 ovarian) [µM] | TGI (OVCAR-5 ovarian) [µM] | TGI (SF-268 CNS) | TGI (SF-539 CNS) [µM] | TGI (SK-MEL-28 melanoma) [µM] | TGI (SW-620 colon) [µM] | TGI (UACC-62 melanoma) [µM] | TGI (MDA-N) [µM] | TGI (NCI/ADR-RES ovarian) [µM] | TGI (PC-3 prostate) [µM] | TGI (T-47D breast) [µM] | TGI (SF-295 CNS) [µM] | GI50 (NCI/ADR-RES ovarian) [µM] | GI50 (SF-268 CNS) | GI50 (SF-539 CNS) | GI50 (T-47D breast)
O=c1c2c(c1=O)-c1ccccc1CN2 | > 100 | > 100 | > 100 | > 100 | > 100 µM | > 100 | > 100 | > 100 | > 100 | – | – | – | – | – | – | – | – | –
CCCCOC(=O)c1cc(C(=CCC[C@H]2CC[C@@]3(C)[C@@H](CC[C@@H]4[C@@H]3CC[C@]3(C)[C@@H](C(C)CCCC(C)C)CC[C@@H]43)C2)c2cc(Cl)c(O)c(C(=O)OCCCC)c2)cc(Cl)c1O (stereo partly specified) | > 50 | – | > 50 | – | > 50 µM | – | – | > 50 | > 50 | > 50 | > 50 | > 50 | > 50 | – | – | – | – | –
S=C=NC1CCC(c2cc3ccccc3s2)(N2CCCCC2)CC1 (stereo unspecified) | – | 3.23 | 4.34 | 3.7 | 4.3 µM | 3.77 | 3.39 | – | 3.6 | 3.73 | 5.68 | – | 25.3 | 7.39 | – | – | – | –
O=c1ccnc2ccc3n[nH][nH]c3c12 | > 100 | – | > 100 | > 100 | > 100 µM | > 100 | > 100 | > 100 | > 100 | – | – | – | – | > 100 | – | – | – | –
CCOC(=O)C1(Br)S(=O)(=O)OCCOS1(=O)=O | > 100 | > 100 | > 100 | > 100 | > 100 µM | > 100 | > 100 | > 100 | > 100 | – | – | – | – | > 100 | – | – | – | –
COC1C(O)C(C)OC(OC2CCC3(C)C(CCC4C3C(O)CC3(C)C(C5=CC(=O)OC5)CCC43O)C2)C1O (stereo unspecified) | 10.7 | 0.251 | 0.553 | 1.77 | 0.532 µM | 0.22 | 1.62 | 4.9 | 1.25 | 0.905 | – | 5.17 | 2.59 | 1.23 | – | – | – | –
COc1cccc(NC(=O)C(=O)C2C=CCS2(=O)=O)c1 (stereo unspecified) | > 100 | > 100 | > 100 | > 100 | > 100 µM | > 100 | > 100 | > 100 | > 100 | – | – | – | – | > 100 | – | – | – | –
O=C1C=CC2(C=C1)C[C@H](NC(=O)OCc1ccccc1)C(=O)O2 | 38.1 | 8.53 | 30.4 | 38.2 | 32.3 µM | 44.5 | 27 | 18.2 | 31.9 | 28.9 | – | 29.9 | 49.9 | 49.5 | – | – | – | –
COC(=O)C1(C)NCCc2c1[nH]c1ccccc21 (stereo unspecified) | > 100 | > 100 | > 100 | > 100 | > 100 µM | > 100 | > 100 | > 100 | > 100 | – | – | – | – | > 100 | – | – | – | –
N#Cc1ccc(C2NN=CC23C(=O)c2ccccc2OC3c2ccccc2)cc1 (stereo unspecified) | > 100 | 54.4 | > 100 | > 100 | > 100 µM | > 100 | > 100 | > 100 | > 100 | – | > 100 | > 100 | – | > 100 | – | – | – | –
COC(=O)C1=C(CCC[C@H](C)O[Si](C)(C)C(C)(C)C)NC(=O)N2[C@@H](CCO)CC[C@H]12 | 31.8 | 19.2 | 27.9 | 33.7 | 28.6 µM | 31.6 | 35.5 | 42.5 | – | – | 29.1 | – | 32.9 | 25.1 | – | – | – | –
COc1cc2c[n+](C)c3c4cc(OC)c(OC)cc4ccc3c2cc1OC | 97.7 | 42.2 | > 100 | > 100 | > 100 µM and 37.6 µM | > 100 | > 100 | > 100 | > 100 | – | > 100 | > 100 | > 100 | > 100 | > 100 | 22.6 µM and 3.32 µM | 71.3 µM and 29.9 µM | > 100 µM and 10.1 µM
CN(C(=O)c1ccc(OCCCC(=O)O)c(Cl)c1Cl)C1CCCC1 | > 100 | > 100 | > 100 | > 100 | > 100 µM | > 100 | > 100 | > 100 | > 100 | – | > 100 | – | – | > 100 | – | – | – | –
[N-]=[N+]=CC(=O)CCC(=O)N(c1ccccc1)c1ccccc1 | > 10 | – | > 10 | > 10 | > 10 µM | > 10 | > 10 | > 10 | – | > 10 | – | > 10 | > 10 | > 10 | – | – | – | –
COc1ccc(/C(=N\Nc2ccccn2)c2ccccn2)cc1 | 7.89 | 14.8 | 19.5 | 98.9 | 13.1 µM | 6.6 | > 53 | 30.4 | 6.44 | > 100 | 0.0475 | > 100 | – | 3.54 | – | – | – | –
Cc1cccc2c1c(=O)c1c(O)cc(O)cc1n2C | > 100 | > 100 | > 100 | > 100 | > 100 µM | > 100 | > 100 | > 100 | > 100 | > 100 | > 100 | > 100 | – | > 100 | – | – | – | –
C/C(Cc1ccc2c(c1)OCO2)=N\NC(=O)C(C)Sc1nnc(SC(C)C(=O)N/N=C(\C)Cc2ccc3c(c2)OCO3)s1 (stereo unspecified) | > 100 | – | > 100 | > 100 | > 100 µM | – | > 100 | > 100 | > 100 | > 100 | > 100 | > 100 | – | > 100 | – | – | – | –
CC(=O)/C(C=Nc1c(C)n(C)n(C)c1=O)=C(/O)c1ccccc1 | > 50 | > 50 | > 50 | > 50 | > 50 µM | > 50 | > 50 | > 50 | > 50 | > 50 | – | > 50 | > 50 | > 50 | – | – | – | –

— PubChem BioAssay (NCI)
